# Laboratory results from US9278936B2, “Crystalline forms of 1-(3-tert-butyl-1-p-tolyl-1H-pyrazol-5-yl)-3-(5-fluoro-2-(1-(2-hydroxyethyl)-1H-indazol-5-yloxy)benzyl)urea hydrochloride” (Array BioPharma Inc., priority 2012, dated 2016).
# Experiments:
# [1] = Pharmacokinetics, relative bioavailability and food effect in healthy subjects following single oral doses; format: in vivo, human; settings: by 48 hours after dosing
# Excerpt: Formulations 1 and 2 as well as the control are summarized below.
# This study design encompassed 3 parallel treatment cohorts of unique subjects evaluating the two formulations (12 subjects per cohort) and the PIC control (6 subjects) in a fasted or fed state, as shown in Table 12. A crossover food-effect assessment for the two formulations occurred with Groups 1 and 2 within Periods 1 and 2.
# For each period, subjects were divided into 2 groups of equal size to evaluate any potential period effects on the food-effect assessment. Subjects fasted for a minimum of 8 hours the night before and 4 hours following dosing for the fasted assessment. Subjects consumed a slightly modified standard high-fat meal 30 minutes before and fasted for 4 hours after dosing for the fed portion of the food-effect assessment. Following a 7-day washout after the initial dose, subjects being dosed with the novel formulations returned to the clinic for the Period 2 single dose in the fasted state or following the consumption of a high-fat meal, as appropriate. Within each cohort and period, all subjects were treated on the same day. The same subjects were utilized for Cohort 1—Periods 1 and 2, and likewise for Cohort 2—Periods 1 and 2.
# Both days were considered single dose for analysis purposes. Pharmacokinetic parameters calculated included the following: […]
# [2] = Aqueous solubility / BCS class; format: physicochemical
# p38 MAPK = settings: cited from earlier work
# Tie2 protein kinase = Tie2 protein kinase (Homo sapiens, UniProt Q02763); settings: cited from earlier work
# Chain of Tie2 protein kinase (Q02763 23-1124): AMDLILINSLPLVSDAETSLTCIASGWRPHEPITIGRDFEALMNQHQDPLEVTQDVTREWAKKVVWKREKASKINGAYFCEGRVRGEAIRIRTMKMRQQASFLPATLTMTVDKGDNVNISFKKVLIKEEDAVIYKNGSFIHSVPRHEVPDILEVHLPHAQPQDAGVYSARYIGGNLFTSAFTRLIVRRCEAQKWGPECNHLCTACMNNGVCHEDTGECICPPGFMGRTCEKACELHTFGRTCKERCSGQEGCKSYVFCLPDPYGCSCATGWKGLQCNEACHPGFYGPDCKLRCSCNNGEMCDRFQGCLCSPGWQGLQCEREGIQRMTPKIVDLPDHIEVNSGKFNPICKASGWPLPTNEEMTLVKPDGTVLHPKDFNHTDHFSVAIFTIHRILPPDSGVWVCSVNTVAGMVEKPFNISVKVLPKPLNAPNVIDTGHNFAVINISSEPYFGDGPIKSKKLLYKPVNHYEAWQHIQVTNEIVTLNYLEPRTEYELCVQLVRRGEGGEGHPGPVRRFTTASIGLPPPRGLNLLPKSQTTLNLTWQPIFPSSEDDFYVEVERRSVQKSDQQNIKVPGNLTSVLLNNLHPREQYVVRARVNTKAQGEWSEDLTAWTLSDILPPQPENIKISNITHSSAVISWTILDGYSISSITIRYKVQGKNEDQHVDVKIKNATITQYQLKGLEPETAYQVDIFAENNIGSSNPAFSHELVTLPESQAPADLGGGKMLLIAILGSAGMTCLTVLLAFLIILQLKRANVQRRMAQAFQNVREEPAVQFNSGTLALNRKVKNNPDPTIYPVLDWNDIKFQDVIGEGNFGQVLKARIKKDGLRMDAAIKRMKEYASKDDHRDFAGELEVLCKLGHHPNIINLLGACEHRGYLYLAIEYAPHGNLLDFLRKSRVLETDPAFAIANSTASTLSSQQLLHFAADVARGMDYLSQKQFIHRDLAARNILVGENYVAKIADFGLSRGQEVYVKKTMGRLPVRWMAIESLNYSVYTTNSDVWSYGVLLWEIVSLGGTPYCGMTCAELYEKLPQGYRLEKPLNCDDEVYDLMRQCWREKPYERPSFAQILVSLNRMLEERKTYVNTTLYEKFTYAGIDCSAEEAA
compound,measurement,setting,value
"Cc1ccc(-n2nc(C(C)(C)C)cc2NC(=O)NCc2cc(F)ccc2Oc2ccc3c(cnn3CCO)c2)cc1 [ARRY-614, 1-(3-Tert-butyl-1-p-tolyl-1H-pyrazol-5-yl)-3-(5-fluoro-2-(1-(2-hydroxyethyl)-1H-indazol-5-yloxy)benzyl)urea]",mean plasma concentrations relative to the mean peak plasma concentrations,[1],less than 10%
same,BCS class,[2],Class II
same,solubility,"[2]; aqueous media, aqueous buffer, across the typical physiological pH range of 2-8",< 10 µg/mL
same,inhibitory activity against p38 MAPK,p38 MAPK,potent inhibitory activity
same,inhibitory activity against Tie2 protein kinase,Tie2 protein kinase,potent inhibitory activity
